Assay results published in patent US12605407B2, “Methods to induce terminal differentiation in stem cells by interfering with DNA replication, methods of inducing pancreatic differentiation, and differentiated cells obtained thereof” (priority 2018, dated 2026).

Key:
[1] = test system: pancreatic progenitors and beta cells; test: Cell cycle progression profiling by flow cytometry (Edu incubation, Hoechst DNA content, KI67); assay type: cell-based, human
Description: The beta cell clusters were dissociated using TrypLE™ Express into single cells. Cells were fixed with 4% PFA for 10 min and followed by permeabilization at −20° C. with cold methanol for 10 min. Primary antibodies were added at a dilution of 1:100 in autoMACs Rinsing Solution (Cat. No. 130-091-222, Miltenyi Biotec) containing 0.5% BSA at 4° C. for 1 hour. Secondary antibodies were added at a dilution of 1:500 at room temperature for 1 hour. The cells were filtered with BD Falcon 12×75 mm tube with cell strainer cap (Cat. No. 352235, BD) and subsequently analyzed by flow cytometer. Data were analyzed using Flowjo software. Negative controls were performed by only adding secondary antibodies.
To investigate the mechanism underlying the increased purity of stem cell-derived C-peptide positive cells induced by APH, cell proliferation, apoptosis and differentiation efficiency were examined during differentiation. The cell cycle progression was profiled at day 15, day 18, day 20 and day 27 of beta cell differentiation. In untreated cells, C-peptide positive cells started to form from day 15 (about 5%) (FIG. 2A) and reached a peak at day 20 (about 46%) (FIG. 2B). About 2% of total cells underwent proliferation during 2 hours of Edu incubation at each stage before day 20 and very few C-peptide positive cells were labeled positive for Edu (FIG. 2B). At day 27, the percentage of proliferating cells increased to about 13% and the percentage of C-peptide positive cells decreased due to proliferation of non-C-peptide cells in the clusters (FIG. 2B). When APH was added from day 15 to day 27, the number of C-peptide positive cells was increased as early as day 18, 3 days after addition of APH (FIG. 2C). At day 20, about 60% cells expressed C-peptide and the high expression of C-peptide was maintained until the day 27.
To determine the cell cycle phase at which aphidicolin arrested pancreatic progenitors and beta cells, flow cytometry combined with Hoechst staining for DNA content and EdU labeling was performed.
(§1) By the end of day 27, 30% of control cells were in cell cycle through G1 to M phase indicated by the expression of KI67 (a proliferation marker expressed in the cells within cell cycle) and amount of DNA content (FIG. 3A). […] The cell cycle gene expression in insulin expressing cells was also examined.

[2] = test system: pancreatic progenitor cells; test: TUNEL staining for apoptosis and absolute cell numbers; assay type: cell-based
From the text: To determine whether the increased percentage of beta cells was due to cell death of proliferating progenitors or due to increased differentiation from pancreatic progenitor cells, absolute cell numbers and cell death were quantified. Cells at day 17 and day 27 with and without APH treatment were stained for TUNEL. […] Therefore, the increased percentage of C-peptide positive cells was due to the increased differentiation, not the elimination of non-C-peptide positive cells from day 15 to day 20. After day 20, APH maintained the purity of beta cell clusters by preventing the growth of non-beta cells.

[3] = test system: stem cell derived beta cells; test: Gene expression by quantitative realtime PCR in sorted insulin-GFP positive cells; assay type: cell-based, human
From the text: Total RNA was extracted from the cells at beta cell stage (d27) from different conditions using a RNeasy Mini Kit (Cat. No. 74106, QIAGEN). The total RNA was reverse transcripted into cDNA using iScript™ Reverse Transcription Supermix (Cat. No. 170-8841, Bio-Rad), and the cDNA were sequentially used as template with SsoFast™ EvaGreen® Supermix (Cat. No. 172-5202, Bio-Rad) for quantitative realtime PCR.
as §1
(§2) Insulin positive cells were isolated based on GFP expression and the expressions of genes related to the maturation of beta cells including PDX1, NKX6.1, MAFA and insulin were evaluated (FIG. 6A). […] In addition, the C-peptide secretion was increased 2-6-fold, with an average of 3-fold, in response to high levels of glucose (FIG. 6D).

[4] = test system: stem cell derived beta cells; test: Western blotting of sorted GFP positive cells; assay type: cell-based, human; settings: Western Blot
Description: The sorted GFP positive and negative cells with and without cell cycle inhibitor (e.g., APH) treatment were lysed with RIPA buffer. Protein was quantified with Pierce BCA protein assay kit. 20 ug of protein was loaded on 4-20% Mini-PROTEAN TGS Precast Protein Gels (Cat. No. 4561094, Bio-Rad) from each condition and ran at 100 V for 1 hour followed by transferring protein on PVDF membrane. The membrane was blocked with 3% BSA in TBST for 1 hour at RT, incubate with primary antibodies diluted in TBST with 3% BSA overnight on a shaker. After washing with TBST, the membrane was incubated with secondary antibodies diluted in TBST with 3% non-fat dry milk powder for 1 hour at room temperature. The image was taken using ChemiDoc Imaging Systems (Bio-Rad).
as §2

NSG mice = test: Graft growth by luciferase reporter in vivo imaging, cyst formation and graft sections
Description: 8-10 weeks old male immuno-compromised mice (NOD.Cg-Prkdcscid Il2rgtm1Wj1/SzJ (NSG) from Jackson laboratories, Cat. No. 005557) were used for transplantation. For intra leg muscle transplantation, 1-2 million cells were collected and settled in tube with 50 μl Matrigel. All animal protocols were approved by the Institutional Animal Care and Use Committee in Columbia University.
A major obstacle for the therapeutic translation of stem cell products is the formation of growths, in the form of a teratoma or of a cyst. To determine growth potential of the grafted cells, growth was evaluated by monitoring the graft with a luciferase reporter using in vivo imaging. Mice were transplanted with 1-2 million APH treated cells or untreated cells. After 2 weeks of transplantation, the graft size of APH mice was small, while controls were modestly larger (FIG. 8A). […] The different growth trend of grafted cells between control and APH treated cells was evident in the bioluminescence intensity (FIG. 8C). At 22 weeks of engraftment, the size of graft in APH group was an average of 2.6-fold larger than that of 2 weeks compare to the control group which had 53.1-fold increase (FIG. 8D). Graft growth occurred in controls even in cultures with very high differentiation efficiency (greater than 60%). The increase of graft size was slower in the 3 mice transplanted with control cells with high differentiation efficiency but cystic structure still formed in three out of the three (3/3) mice (FIG. 8C, FIG. 8E).
The grafts were isolated from mice and frozen sectioned for examination. […] In control mice, the graft developed several large cystic structures and contained fewer C-peptide positive cells (FIG. 8G).

[5] = GFP positive cells from APH treated clusters versus GFP positive cells in control clusters
[6] = isolated grafts, frozen sections

## C[C@@]1(CO)[C@H](O)CC[C@@]2(C)[C@H]1CC[C@H]1C[C@@H]3C[C@@]12CC[C@]3(O)CO [APH, Aphidicolin]
[1]; day 18, 3 days after addition of APH (added day 15 to day 27)
  number of C-peptide positive cells: increased
[1]; day 20, APH added from day 15
  cells expressing C-peptide: about 60%
[1]; end of day 27
  cell cycle phase of arrest: arrested in G1 phase
  cells in cell cycle (KI67): About 5%
[1]; until day 27, APH added day 15 to day 27
  high expression of C-peptide: maintained
[1]; whole duration of differentiation, APH day 15 to day 27
  proliferating cells (Edu): Very few cells, if any
[2]; day 17 and day 27, early and late stage of APH treatment
  cell apoptosis, percentage of TUNEL positive cells: No significant increase
[2]; day 20
  number of total cells compared to control group: comparable
  percentage of C-peptide positive cells compared to control: significantly increased
[3]; [5]
  expression of MAFA at transcription level: significantly upregulated
  expression of NKX6.1 at transcription level: significantly upregulated
  expression of PDX1 at transcription level: significantly upregulated
  expression of insulin at transcription level: significantly upregulated
[3]; insulin positive cells
  expression of CDK4: downregulated
  expression of Cyclin D1: downregulated
  expression of P21: upregulated
[4]
  expression of MAFA at the translational level: increased expression
  expression of NKX6.1 at the translational level: increased expression
  expression of PDX1 at the translational level: increased expression
  expression of insulin at the translational level: increased expression
NSG mice; 2 weeks of transplantation, 1-2 million APH treated cells
  graft size: small
NSG mice; 22 weeks of engraftment
  size of graft relative to 2 weeks, average (bioluminescence): 2.6 fold
NSG mice; eleven weeks later (13 weeks post transplantation)
  graft size relative to graft at 2 weeks: remained the similar size
NSG mice; four out of the four (4/4) mice
  cysts in mice grafted with APH treated cells: No cysts
NSG mice; [6]
  MAFA staining of insulin expressing beta cells in graft: positive for MAFA
  graft composition: islet like structures
